Test results published in ChEMBL document CHEMBL5727906, “Adenosine A3 receptor modulators” (2020).

Legend:
Adenosine receptor A1 = target: T1, Adenosine receptor A1 (Homo sapiens, UniProt P30542); assay: Competition Radioligand Binding Assay: Adenosine A1 Receptor: Competition assays were carried out by incubation of human recombinant membranes of adenosine receptors from hA1 receptors transfected to CHO cells, [3H] DPCPX as radioligand, buffer (HEPES 20 mM (pH=7.4), 10 mM MgCl2, 100 mM NaCl, 2 U/mL of deaminase adenosine and non-labelled ligand in a total volume of 0.2 mL for 90 min at 25° C. R-PIA was used to determinate non-specific binding. Filter over Schleicher & Schuell GF/52 (pre-soaked 0.5% polyethylenimine) in a Brandel cell harvester. Unbound radioligand was removed with HEPES 30 mM (3×250 μl), NaCl (100 mM) and MgCl2 (10 mM).
T1 sequence (P30542 whole entry): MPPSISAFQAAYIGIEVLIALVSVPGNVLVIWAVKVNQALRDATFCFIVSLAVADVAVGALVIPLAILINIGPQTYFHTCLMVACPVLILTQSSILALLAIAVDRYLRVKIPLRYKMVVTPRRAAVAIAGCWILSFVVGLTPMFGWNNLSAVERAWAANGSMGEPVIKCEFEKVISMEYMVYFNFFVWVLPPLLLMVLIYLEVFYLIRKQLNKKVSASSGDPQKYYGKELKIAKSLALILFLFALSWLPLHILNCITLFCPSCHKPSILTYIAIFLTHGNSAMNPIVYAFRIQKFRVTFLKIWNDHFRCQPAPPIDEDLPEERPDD

Adenosine receptor A2a = Adenosine receptor A2a (Homo sapiens, UniProt P29274); assay: Competition Radioligand Binding Assay: A2A Adenosine Receptor: Competitive assays were carried out by incubation of membranes from human A2A receptors transfected to HeLa cells, [3H]-ZM241385, buffer (Tris-HCl 50 mM (pH=7.4), 10 mM MgCl2, EDTA 1 mM and 2 units/ml adenosine deaminase), and unlabelled ligand in a total volume of 0.2 ml for 60 min at 25° C. NECA was used to determine nonspecific binding. It was filtered over Schleicher & Schuell GF/52 (presoaked with 0.5% polyethyleneimine) in a Brandel cell harvester. The unbound radioligand was removed with 3×250 μl of 20 mM Tris-HCl 50 mM (pH=7.4), 10 mM MgCl2, EDTA 1 mM.
Adenosine receptor A2b = target: T2, Adenosine receptor A2b (Homo sapiens, UniProt P29275); assay: Competition Radioligand Binding Assay: A2B Adenosine Receptor: The binding assay for adenosine A2B receptor subtype was carried out on human recombinant source (HEK-293 cells) and [3H]DPCPX as radioligand.
T2 sequence (P29275 whole entry): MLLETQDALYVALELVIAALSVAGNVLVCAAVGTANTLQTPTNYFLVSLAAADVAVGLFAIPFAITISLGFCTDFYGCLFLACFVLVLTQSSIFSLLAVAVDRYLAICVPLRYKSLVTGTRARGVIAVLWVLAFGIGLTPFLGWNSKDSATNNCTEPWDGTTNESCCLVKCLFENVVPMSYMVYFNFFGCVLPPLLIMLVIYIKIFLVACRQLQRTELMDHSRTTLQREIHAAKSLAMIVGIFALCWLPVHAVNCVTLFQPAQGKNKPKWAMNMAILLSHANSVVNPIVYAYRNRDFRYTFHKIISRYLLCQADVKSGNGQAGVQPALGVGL

Adenosine receptor A3 = target: T3, Adenosine receptor A3 (Homo sapiens, UniProt P0DMS8); assay: Competition Radioligand Binding Assay: A3 Adenosine Receptor:Competitive assays were carried out by incubation of membranes from human A3 receptors transfected to CHO cells, [3H]-NECA, buffer (20 mM HEPES (pH 7.4), 100 mM NaCl, 10 mM MgCl2, 2 units/ml adenosine deaminase), and unlabelled ligand in a total volume of 0.2 ml for 60 min at 25° C. R-PIA was used to determine nonspecific binding. It was filtered over Schleicher & Schuell GF/52 (presoaked with 0.5% polyethyleneimine) in a Brandel cell harvester. The unbound radioligand was removed with 3×250 μl of 20 mM HEPES (pH 7.4), 100 mM NaCl, 10 mM MgCl2.
T3 sequence (P0DMS8 whole entry): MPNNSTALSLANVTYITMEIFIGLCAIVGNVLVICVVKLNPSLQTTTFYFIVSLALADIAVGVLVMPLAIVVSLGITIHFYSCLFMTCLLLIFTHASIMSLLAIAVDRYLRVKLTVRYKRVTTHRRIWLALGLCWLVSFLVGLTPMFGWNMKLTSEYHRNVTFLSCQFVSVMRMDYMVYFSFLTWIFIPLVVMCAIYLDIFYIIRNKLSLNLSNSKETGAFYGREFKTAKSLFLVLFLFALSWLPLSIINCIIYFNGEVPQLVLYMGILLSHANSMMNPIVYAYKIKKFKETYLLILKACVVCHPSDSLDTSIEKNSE

Adenosine receptor A2a, sequence (P29274 whole entry): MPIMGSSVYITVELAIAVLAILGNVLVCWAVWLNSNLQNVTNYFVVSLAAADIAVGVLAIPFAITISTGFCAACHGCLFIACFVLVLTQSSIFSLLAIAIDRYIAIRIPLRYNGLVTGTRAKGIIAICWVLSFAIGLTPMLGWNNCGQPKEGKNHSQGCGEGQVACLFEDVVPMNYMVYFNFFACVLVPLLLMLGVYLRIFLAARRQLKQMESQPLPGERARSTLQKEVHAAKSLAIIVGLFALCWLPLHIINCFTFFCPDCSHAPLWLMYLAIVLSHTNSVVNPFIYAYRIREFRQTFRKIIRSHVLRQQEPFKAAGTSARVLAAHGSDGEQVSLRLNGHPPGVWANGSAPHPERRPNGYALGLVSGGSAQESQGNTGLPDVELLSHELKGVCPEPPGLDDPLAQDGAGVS

Ki (Adenosine receptor A1): > 1 µM
Ki (Adenosine receptor A2a): > 1 µM
Ki (Adenosine receptor A2b): > 1 µM
Ki (Adenosine receptor A3): 0.0476 µM
SMILES: COc1ccc(-c2nc(NC(=O)c3ccc(N4CCC(C(=O)O)CC4)nc3)sc2C#N)cc1
